# Test results from PubChem BioAssay AID328 (DTP/NCI, 2004).
# Values joined by “and” are separate entries in the source; they are usually repeats but may differ in a detail not shown here. Equal entries are not always repeated. Inconclusive results and toxic doses are left out.
# Test system: BDF1 mice, P388 leukemia ip, median survival T/C
# Experiment: NCI In Vivo Anticancer Drug Screen. Data for tumor model P388 Leukemia (intraperitoneal) in B6D2F1 (BDF1) mice
# Conditions: endpoint: median survival time, higher = longer survival
# Procedure, shortened: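 Steps: implant the tumour, treat one group with compound and another with vehicle, record survival, then divide treated by control.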
# [1] = dose: 12.5 mg/kg/injection, schedule: Q01DX009 (ip), vehicle: saline
# [2] = dose: 50.0 mg/kg/injection, schedule: Q01DX009 (ip), vehicle: saline
# [3] = dose: 100.0 mg/kg/injection, schedule: Q04DX003 (ip), vehicle: Klucel (hydroxypropylcellulose) (HPC)
# [4] = dose: 200.0 mg/kg/injection, schedule: Q04DX003 (ip), vehicle: Klucel (hydroxypropylcellulose) (HPC)
# [5] = dose: 400.0 mg/kg/injection, schedule: Q04DX003 (ip), vehicle: Klucel (hydroxypropylcellulose) (HPC)
# [6] = dose: 50.0 mg/kg/injection, schedule: Q01DX009 (ip), vehicle: saline with Tween-80
# [7] = dose: 200.0 mg/kg/injection, schedule: Q01DX009 (ip), vehicle: saline with Tween-80
# [8] = dose: 200.0 mg/kg/injection, schedule: Q04DX003 (ip), vehicle: saline with Tween-80
# [9] = dose: 100.0 mg/kg/injection, schedule: Q01DX009 (ip), vehicle: saline with Tween-80
# [10] = dose: 100.0 mg/kg/injection, schedule: Q04DX003 (ip), vehicle: alcohol
# [11] = dose: 200.0 mg/kg/injection, schedule: Q04DX003 (ip), vehicle: alcohol
# [12] = dose: 100.0 mg/kg/injection, schedule: Q04DX003 (ip), vehicle: saline
# [13] = dose: 200.0 mg/kg/injection, schedule: Q04DX003 (ip), vehicle: saline
smiles,measurement,setting,value
COc1cc2cc[n+]3c(C)c4cc5c(cc4cc3c2cc1OC)OCO5 (tested in a mixture with another compound),T/C,"dose: 2.2 mg/kg/injection, schedule: Q01DX009 (ip), vehicle: saline",158 % of control
same,T/C,"dose: 3.3 mg/kg/injection, schedule: Q01DX009 (ip), vehicle: saline",163 % of control
same,T/C,"dose: 5.0 mg/kg/injection, schedule: Q01DX009 (ip), vehicle: saline",174 % of control
same,T/C,"dose: 7.5 mg/kg/injection, schedule: Q01DX009 (ip), vehicle: saline",186 % of control
same,T/C,[1],230 % of control
same,T/C,"dose: 25.0 mg/kg/injection, schedule: Q01DX009 (ip), vehicle: saline",123 % of control
same,T/C,[2],102 % of control
O=S(=O)(Nc1ccc(NS(=O)(=O)c2ccccc2)nc1)c1ccccc1,T/C,[3],100 % of control
same,T/C,[4],104 % of control
same,T/C,[5],100 % of control
C=CCCc1cc(OC)ccc1C(=O)C(C)C,T/C,[6],112 % of control
same,T/C,[7],119 % of control
CN(C)CC(=O)c1ccc(O)c(O)c1,T/C,"dose: 300.0 mg/kg/injection, schedule: Q01DX010 (ip), vehicle: saline",150 % of control
Cc1nc2c(NC(=O)C(F)(F)F)nn(C)c2nc1C,T/C,"dose: 100.0 mg/kg/injection, schedule: Q04DX003 (ip), vehicle: saline with Tween-80",100 % of control
same,T/C,[8],104 % of control
same,T/C,"dose: 400.0 mg/kg/injection, schedule: Q04DX003 (ip), vehicle: saline with Tween-80",100 % of control
CC1(C)N=C(N)N=C(N)N1c1ccc(F)cc1,T/C,"dose: 50.0 mg/kg/injection, schedule: Q01DX005 (ip), vehicle: Klucel (hydroxypropylcellulose) (HPC)",117 % of control
Cc1cc(C)c(C)c(Br)c1,T/C,[6],100 % of control
same,T/C,[9],104 % of control
S=c1nn[nH]n1-c1ccccc1.[Zn+2],T/C,[6],109 % of control
same,T/C,[9],118 % of control
COc1ccc(-c2c(C)c(C(=O)O)nc(-c3ccc4c(O)c(OC)c5c(c4n3)=NC(C)(C)N=5)c2N)c(O)c1OC,T/C,"dose: 1.0 mg/kg/injection, schedule: Q01DX010 (ip), vehicle: other",90 % of control
same,T/C,"dose: 2.0 mg/kg/injection, schedule: Q01DX010 (ip), vehicle: other",118 % of control
same,T/C,"dose: 4.0 mg/kg/injection, schedule: Q01DX010 (ip), vehicle: other",118 % of control
same,T/C,"dose: 5.0 mg/kg/injection, schedule: Q01DX010 (ip), vehicle: water",100 % of control
same,T/C,"dose: 10.0 mg/kg/injection, schedule: Q01DX010 (ip), vehicle: water",95 % of control
CC(=N\O)/C(C)=N/O.CC(=N\O)/C(C)=N/O.O.[CH3-].[Co],T/C,"dose: 6.25 mg/kg/injection, schedule: Q01DX009 (ip), vehicle: saline",100 % of control
same,T/C,[1],97 % of control
Cc1cccc(C(=O)Cc2cccc(C#N)c2)c1,T/C,[6],113 % of control
same,T/C,[9],99 % of control
same,T/C,[7],96 % of control
Cc1ccc(C(SCC(N)C(=O)O)(c2ccccc2)c2ccc(C)cc2)cc1 (stereo not given),T/C,[6],268 % of control
same,T/C,[9],172 % of control
same,T/C,"dose: 132.0 mg/kg/injection, schedule: Q04DX003 (ip), vehicle: saline with Tween-80",190 % of control
same,T/C,[8],231 % of control
O=C(NP(=O)(N1CC1)N1CC1)OCc1ccccc1,T/C,"dose: 100.0 mg/kg/injection, schedule: Q01DX009 (ip), vehicle: alcohol",100 % of control
same,T/C,[10],95 % of control
same,T/C,"dose: 200.0 mg/kg/injection, schedule: Q01DX009 (ip), vehicle: alcohol",100 % of control
same,T/C,[11],110 % of control
same,T/C,"dose: 400.0 mg/kg/injection, schedule: Q01DX009 (ip), vehicle: alcohol",86 % of control
same,T/C,"dose: 400.0 mg/kg/injection, schedule: Q04DX003 (ip), vehicle: alcohol",100 % of control
O=S(=O)(Cl)CCCBr,T/C,"dose: 50.0 mg/kg/injection, schedule: Q01DX001 (ip), vehicle: saline sonified",100 % of control
same,T/C,"dose: 100.0 mg/kg/injection, schedule: Q01DX001 (ip), vehicle: saline sonified",100 % of control
same,T/C,"dose: 200.0 mg/kg/injection, schedule: Q01DX001 (ip), vehicle: saline sonified",100 % of control
CCCCCCCCCCC(C)c1ccc(S(=O)(=O)O)cc1 (stereo not given),T/C,"dose: 12.5 mg/kg/injection, schedule: Q01DX009 (ip), vehicle: saline with Tween-80",103 % of control
same,T/C,"dose: 25.0 mg/kg/injection, schedule: Q01DX009 (ip), vehicle: saline with Tween-80",110 % of control
same,T/C,"dose: 33.0 mg/kg/injection, schedule: Q01DX009 (ip), vehicle: saline with Tween-80",120 % of control
same,T/C,[6],115 % of control and 116 % of control and 118 % of control
same,T/C,"dose: 75.0 mg/kg/injection, schedule: Q01DX009 (ip), vehicle: saline with Tween-80",110 % of control
same,T/C,[9],119 % of control
N#Cc1ccccc1[N+](=O)[O-],T/C,"dose: 4.0 mg/kg/injection, schedule: Q01DX010 (ip), vehicle: carboxymethylcellulose (CMC)",100 % of control
same,T/C,"dose: 16.0 mg/kg/injection, schedule: Q01DX010 (ip), vehicle: carboxymethylcellulose (CMC)",100 % of control
CC(=O)OCC(=O)[C@@]1(O)[C@H](C)C[C@H]2[C@@H]3C=C(C)C4=Cc5c(cnn5-c5ccc(F)cc5)C[C@]4(C)[C@H]3[C@@H](O)C[C@@]21C,T/C,"dose: 0.19 mg/kg/injection, schedule: Q01DX009 (sc), vehicle: steriod suspending solution",120 % of control
same,T/C,"dose: 0.39 mg/kg/injection, schedule: Q01DX009 (sc), vehicle: steriod suspending solution",110 % of control
same,T/C,"dose: 0.58 mg/kg/injection, schedule: Q04DX003 (sc), vehicle: steriod suspending solution",118 % of control
same,T/C,"dose: 0.78 mg/kg/injection, schedule: Q01DX009 (sc), vehicle: steriod suspending solution",90 % of control
same,T/C,"dose: 1.17 mg/kg/injection, schedule: Q04DX003 (sc), vehicle: steriod suspending solution",118 % of control
same,T/C,"dose: 2.34 mg/kg/injection, schedule: Q04DX003 (sc), vehicle: steriod suspending solution",118 % of control
same,T/C,"dose: 3.4 mg/kg/injection, schedule: Q04DX003 (sc), vehicle: steriod suspending solution",100 % of control
same,T/C,"dose: 5.3 mg/kg/injection, schedule: Q04DX003 (sc), vehicle: steriod suspending solution",90 % of control
same,T/C,"dose: 6.0 mg/kg/injection, schedule: Q04DX003 (ip), vehicle: Klucel (hydroxypropylcellulose) (HPC)",105 % of control
same,T/C,"dose: 12.0 mg/kg/injection, schedule: Q04DX003 (ip), vehicle: Klucel (hydroxypropylcellulose) (HPC)",105 % of control
same,T/C,"dose: 25.0 mg/kg/injection, schedule: Q04DX003 (ip), vehicle: Klucel (hydroxypropylcellulose) (HPC)",90 % of control
same,T/C,[3],90 % of control
O=C(O)C1OC(n2cc(F)c(=O)[nH]c2=O)CC1O (stereo not given),T/C,"dose: 50.0 mg/kg/injection, schedule: Q04DX003 (ip), vehicle: saline",108 % of control
same,T/C,[12],116 % of control
same,T/C,[13],106 % of control
same,T/C,"dose: 300.0 mg/kg/injection, schedule: Q04DX003 (ip), vehicle: saline",108 % of control
S=c1nc[nH]c2ccccc12,T/C,[3],109 % of control
same,T/C,[4],122 % of control
same,T/C,[5],109 % of control
Cc1[nH]c(C)c(C(=O)OC2CCN(C)CC2)c1C,T/C,"dose: 6.25 mg/kg/injection, schedule: Q04DX003 (ip), vehicle: saline with Tween-80",103 % of control
same,T/C,"dose: 12.5 mg/kg/injection, schedule: Q04DX003 (ip), vehicle: saline with Tween-80",100 % of control
same,T/C,"dose: 25.0 mg/kg/injection, schedule: Q04DX003 (ip), vehicle: saline with Tween-80",91 % of control
CC[C@@H](c1ccc(O)cc1)[C@@H](CC)c1ccc(O)cc1,T/C,[2],90 % of control
same,T/C,"dose: 100.0 mg/kg/injection, schedule: Q01DX009 (ip), vehicle: saline",109 % of control
same,T/C,[10],94 % of control
same,T/C,[11],100 % of control
C=C(C)C(=O)Oc1ccc([N+](=O)[O-])cc1,T/C,[6],96 % of control
same,T/C,[9],113 % of control
same,T/C,[7],98 % of control
OC1CCCC2CCC[N-]C12.OC1CCCC2CCC[N-]C12.[Mn+2] (stereo not given),T/C,"dose: 6.25 mg/kg/injection, schedule: Q01DX009 (ip), vehicle: DMSO",107 % of control
same,T/C,"dose: 12.5 mg/kg/injection, schedule: Q01DX009 (ip), vehicle: DMSO",110 % of control
same,T/C,"dose: 25.0 mg/kg/injection, schedule: Q01DX009 (ip), vehicle: DMSO",108 % of control
same,T/C,"dose: 50.0 mg/kg/injection, schedule: Q01DX009 (ip), vehicle: DMSO",123 % of control
same,T/C,"dose: 100.0 mg/kg/injection, schedule: Q01DX009 (ip), vehicle: DMSO",100 % of control
Cc1ccc2c(c1)C(=O)CC=C(C(=O)O)N2,T/C,[12],100 % of control
same,T/C,[7],87 % of control
same,T/C,[13],110 % of control
same,T/C,"dose: 400.0 mg/kg/injection, schedule: Q04DX003 (ip), vehicle: saline",105 % of control
